Test results from patent US11965100B2, “Aggregation-induced emission luminogens useful for cancer cell discrimination and monitoring” (The Hong Kong University of Science and Technology, priority 2020, dated 2024).

Legend:
A549 and HeLa cells = experiment: Mitochondrion-nucleolus migration on H2O2 treatment; assay type: cell-based; conditions: pre-stained 2 μM 30 min, 10 mM H2O2 10 min
Description: FIG. 17 Live A549 and HeLa cells were pre-stained with 2 μM IVP-02 for 30 min, and treated with 10 mM H2O2 for 10 min. λex=488 nm, λem=500-650 nm. Scale bar=20 μm.
Monitoring cell viability is a highly valuable task for the fundamental researches in biology, pathology, and medicine. Then we investigated whether IVP-02 could monitor cell viability. Δψm is a very important indicator to characterize cell viability. With the loss of cell viability, Δψm would decrease, while with the recovery of cell viability, Δψm would also recover to the normal level. […] Carbonyl cyanide m-chlorophenyl hydrazone (CCCP) is a type of protonophore and can cause rapid acidification of mitochondria by collapsing Δψm. Cancer cells A549 were pre-stained with IVP-02 for 30 min. In FIG. 15A, in the beginning, IVP-02 stained mitochondria clearly. […] Hydrogen peroxide (H2O2) can inhibit the oxidation respiratory chain that would cause the loss of cell viability. Then live A549 and HeLa cells were pre-stained with IVP-02, and treated with 10 mM H2O2.

HeLa cells = experiment: Two-photon imaging in live cells; assay type: cell-based; conditions: 2 μM, 30 min, λex 800 nm
Description: FIG. 22 (A) Two-photon microscopy images of live HeLa cells stained with 2 μM IVP-02 for 30 min. λex=800 nm, λem=495-540 nm. Scale bar=20 μm. (B) Viability of A549 cells after incubation with IVP-02, 04, 06, 22, 42, and 62 at different concentrations for 24 h.
Given the high two-photon absorption cross section values of IVP-02 excited by 800 nm, we performed in vitro two-photon imaging of IVP-02 in live HeLa cells.

For CC[n+]1ccc(/C=C/c2c[nH]c3ccccc23)cc1 [IVP-02], the “fluorescence after adding H2O2” value (A549 and HeLa cells) was “strong fluorescence was observed in nucleolus” and the two-photon fluorescence imaging (HeLa cells) was “bright two-photon fluorescence”.
